Results reported in patent US12168664B2, “Triazolopyrimidines, their preparation and use” (THE TRUSTEES OF COLUMBIA UNIVERSITY IN THE CITY OF NEW YORK, priority 2018, dated 2024).
“And” between values parts separate entries of the source, which are not always exact repeats. Equal values may be shown once.

Experiments:
[1] = Metabolic stability in liver microsomes (HLM); assay type: in vitro ADME, human
Method: (§1) The compounds listed below were tested in various metabolic stability and CYP inhibition assays.

[2] = biological target: CYP3A4 (Homo sapiens (Human), UniProt P08684); test: CYP inhibition, fluorescent, CYP3A4; assay type: in vitro ADME
Method: as §1

[3] = biological target: PPARγ (Homo sapiens (Human), UniProt P37231); test: PPARγ agonist assay (HTRF, PPARγ-NCOR interaction); assay type: biochemical; conditions: read-out: PPAR γ assay (HTRF) for agonists of this nuclear receptor - IC50
From the text: Significant safety issues are associated with the clinical use of PPARγ agonists (increased risk of death, myocardial infarction, stroke, congestive heart failure, hepatotoxicity, peripheral edema, weight gain and carcinogenicity^1-4). We wanted to characterize the compounds we identified in a pilot screen as potential PPARγ agonists. The PPARγ assay is based on agonist-sensitive interaction of the GST-tagged ligand-binding domain (LRD) of the nuclear receptor PPARγ with the biotinylated corepressor NCOR peptide (FIG. 8).
Assay reactions are performed in a final volume of 16 ul.
In well of the 384-well assay plate, mix 6 ul of PPARγ solution, 4 ul of NCOR2 solution and 4 μl of Rosi solution. Test compounds diluted from DMSO stocks to 4× assay concentration in 1×HTRF, 100 mM KF buffer may be dispensed to well instead of Rosi. Negative control wells contained DMSO solvent alone; positive control well contained […]. […] Two μl of detection mix was added per well. […] The plate was incubated for 16 hrs at 4° C.
HTRF signal was measured in the SpectraMax M5e Multimode Plate Reader (Molecular Device). Fluorescence was excited at 337 nm. […] The signal was expressed as the ratio of fluorescence intensity: Flu668/Flu620×10,000. […]

[4] = biological target: RBP4-TTR interaction (Homo sapiens (Human), UniProt P02753); test: HTRF (TR-FRET) assay for antagonists of retinol-induced RBP4-TTR interaction; assay type: biochemical; conditions: in the presence of 1 μM retinol
From the text: TR-FRET Assay for Retinol-Induced RBP4-TTR Interaction
Binding of a desired RBP4 antagonist displaces retinol and induces hindrance for RBP4-TTR interaction resulting in the decreased FRET signal (FIG. 7). Bacterially expressed MBP-RBP4 and untagged TTR were used in this assay. For the use in the TR-FRET assay, the maltose binding protein (MBP)-tagged human RBP4 fragment (amino acids 19-201) was expressed in the Gold(DE3)pLysS E. coli strain (Stratagene) using the pMAL-c4x vector. Following cell lysis, recombinant RBP4 was purified from the soluble fraction using the ACTA FPLC system (GE Healthcare) equipped with the 5-ml the MBP Trap HP column. Human untagged TTR was purchased from Calbiochem. Untagged TTR was labeled directly with Eu^3+ Cryptate-NHS using the HTRF Cryptate Labeling kit from CisBio following the manufacturer's recommendations. HTRF assay was performed in white low volume 384 well plates (Greiner-Bio) in a final assay volume of 16 μl per well. […] Titration of test compounds in this assay was conducted in the presence of 1 μM retinol. […] TR-FRET signal was measured in the SpectraMax M5e Multimode Plate Reader (Molecular Device). […] The TR-FRET signal was expressed as the ratio of fluorescence intensity: Flu665/Flu620×10,000.
(§2) The compounds listed below were tested in two in vitro assays, RBP4 binding (SPA) and retinol-dependent RBP4-TTR interaction (HTRF) (Table 1).

[5] = biological target: serum RBP4 (Mus musculus (Mouse), UniProt Q00724); test: Serum RBP4 reduction in Balb/c mice after a single oral administration; assay type: in vivo; conditions: at 6 hr timepoint
Method: Pharmacodynamic Studies of 7a and 7p in Balb/c Mice Following a Single Oral Administration
Animal protocols were approved by the Institutional Animal Care and Use Committee of Columbia University and complied with guidelines set forth by The Association for Research in Vision and Ophthalmology. Compounds were prepared as a suspension in 0.9% NaCl, 2% Tween 80 for oral administration. Compounds were administered to Balb/c mice in a volume of 100 μL through oral gavage. The doses used were 15 mg/kg, 25 mg/kg and 35 mg/kg for 7a while two doses, 25 mg/kg and 35 mg/kg, were tested for DENG-31(FFB-0000082). Blood samples were collected at pre-dose and 1 hr, 2 hr, 4 hr, 6 hr, 8 hr, and 24 hr timepoints. Whole blood was drawn into a centrifuge tube and was let clot at room temperature for 30 min followed by centrifugation at 2,000×g for 15 minutes at +4° C. to collect serum. Serum RBP4 was measured using the RBP4 (mouse/rat) dual ELISA kit (AdipoGen) following the manufacturer's instructions.
In order to attain this objective, the effect of oral compound administration was studied in mice. Three doses of compound 7a and two doses of 7p were tested in Balb/c mice assay for reduction of serum RBP4.

[6] = biological target: CYP2C19 (Homo sapiens (Human), UniProt P33261); test: CYP inhibition, fluorescent, CYP2C19; assay type: in vitro ADME
Method: as §1

[7] = biological target: CYP2C9 (Homo sapiens (Human), UniProt P11712); test: CYP inhibition, fluorescent, CYP2C9; assay type: in vitro ADME
Method: as §1

[8] = biological target: CYP2D6 (Homo sapiens (Human), UniProt P10635); test: CYP inhibition, fluorescent, CYP2D6; assay type: in vitro ADME
Method: as §1

[9] = biological target: human RBP4 (Homo sapiens (Human), UniProt P02753); test: SPA binding assay for RBP4 (scintillation proximity, 3H-retinol displacement); conditions: 10 nM 3H-retinol, 50 nM biotinylated RBP4
Method: Scintillation Proximity RBP4 Binding Assay
Untagged human RBP4 purified from the urine of tubular proteinuria patients was purchased from Fitzgerald Industries International. It was biotinylated using the EZ-Link Sulfo-NHS-LC-Biotinylation kit from Pierce following the manufacturer's recommendations. […] Nonspecific binding was determined in the presence of 20 μM of unlabeled retinol. The reaction mix was assembled in the dark under dim red light. The plates were sealed with clear tape (TopSeal-A: 96-well microplate, PerkinElmer), wrapped in the aluminum foil, and allowed to equilibrate 6 hours at room temperature followed by overnight incubation at +4° C. Radiocounts were measured using a TopCount NXT counter (Packard Instrument Company).
as §2

Chain of PPARγ (P37231 204-505): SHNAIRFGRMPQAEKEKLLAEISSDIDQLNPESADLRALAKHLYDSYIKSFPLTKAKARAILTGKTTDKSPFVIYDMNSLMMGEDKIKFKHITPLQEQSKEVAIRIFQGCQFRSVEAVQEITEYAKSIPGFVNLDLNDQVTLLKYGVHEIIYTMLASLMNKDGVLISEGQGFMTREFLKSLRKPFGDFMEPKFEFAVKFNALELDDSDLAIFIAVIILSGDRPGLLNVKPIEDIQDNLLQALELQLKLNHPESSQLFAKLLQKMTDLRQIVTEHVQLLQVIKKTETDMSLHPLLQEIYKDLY
Chain of CYP2C9 (P11712 whole entry, species assumed): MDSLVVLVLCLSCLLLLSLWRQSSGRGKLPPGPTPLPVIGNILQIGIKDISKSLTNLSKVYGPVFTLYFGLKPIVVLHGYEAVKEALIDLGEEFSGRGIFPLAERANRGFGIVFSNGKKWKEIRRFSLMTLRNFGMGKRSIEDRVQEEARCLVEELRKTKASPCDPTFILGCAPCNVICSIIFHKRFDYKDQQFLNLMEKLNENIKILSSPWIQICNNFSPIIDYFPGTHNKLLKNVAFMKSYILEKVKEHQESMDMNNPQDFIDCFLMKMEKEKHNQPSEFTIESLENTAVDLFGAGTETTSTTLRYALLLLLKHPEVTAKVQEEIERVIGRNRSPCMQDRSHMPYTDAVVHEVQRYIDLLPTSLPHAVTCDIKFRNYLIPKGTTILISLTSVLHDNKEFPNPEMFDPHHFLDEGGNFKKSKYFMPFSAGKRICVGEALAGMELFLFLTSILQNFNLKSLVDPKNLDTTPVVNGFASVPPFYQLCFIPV
Chain of CYP2C19 (P33261 whole entry, species assumed): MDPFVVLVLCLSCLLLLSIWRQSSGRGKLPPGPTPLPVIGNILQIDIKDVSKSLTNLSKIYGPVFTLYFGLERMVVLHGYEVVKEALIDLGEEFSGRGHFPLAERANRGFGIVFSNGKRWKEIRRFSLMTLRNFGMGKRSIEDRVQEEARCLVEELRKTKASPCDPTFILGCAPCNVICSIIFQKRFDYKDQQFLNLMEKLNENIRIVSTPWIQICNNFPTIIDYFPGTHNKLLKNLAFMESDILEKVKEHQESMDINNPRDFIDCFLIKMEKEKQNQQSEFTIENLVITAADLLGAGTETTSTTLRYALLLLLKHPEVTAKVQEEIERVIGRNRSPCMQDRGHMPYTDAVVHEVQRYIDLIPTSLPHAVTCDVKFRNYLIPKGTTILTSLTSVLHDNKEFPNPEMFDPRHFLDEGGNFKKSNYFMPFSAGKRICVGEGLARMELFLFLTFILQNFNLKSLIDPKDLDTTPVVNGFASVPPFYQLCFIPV
Chain of CYP2D6 (P10635 whole entry, species assumed): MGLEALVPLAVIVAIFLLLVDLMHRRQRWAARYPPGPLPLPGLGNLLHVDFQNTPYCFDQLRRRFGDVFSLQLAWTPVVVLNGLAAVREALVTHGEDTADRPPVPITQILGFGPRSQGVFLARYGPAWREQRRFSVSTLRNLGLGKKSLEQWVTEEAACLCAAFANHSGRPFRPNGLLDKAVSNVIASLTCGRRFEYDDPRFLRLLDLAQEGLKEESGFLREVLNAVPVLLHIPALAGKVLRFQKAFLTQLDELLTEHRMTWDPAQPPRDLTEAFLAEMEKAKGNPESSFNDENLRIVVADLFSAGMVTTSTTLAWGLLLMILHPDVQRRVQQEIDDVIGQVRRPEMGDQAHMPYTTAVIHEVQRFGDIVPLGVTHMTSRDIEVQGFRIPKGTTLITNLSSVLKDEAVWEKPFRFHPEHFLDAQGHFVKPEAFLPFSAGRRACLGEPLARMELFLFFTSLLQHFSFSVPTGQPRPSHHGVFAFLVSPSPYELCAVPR
Chain of CYP3A4 (P08684 whole entry, species assumed): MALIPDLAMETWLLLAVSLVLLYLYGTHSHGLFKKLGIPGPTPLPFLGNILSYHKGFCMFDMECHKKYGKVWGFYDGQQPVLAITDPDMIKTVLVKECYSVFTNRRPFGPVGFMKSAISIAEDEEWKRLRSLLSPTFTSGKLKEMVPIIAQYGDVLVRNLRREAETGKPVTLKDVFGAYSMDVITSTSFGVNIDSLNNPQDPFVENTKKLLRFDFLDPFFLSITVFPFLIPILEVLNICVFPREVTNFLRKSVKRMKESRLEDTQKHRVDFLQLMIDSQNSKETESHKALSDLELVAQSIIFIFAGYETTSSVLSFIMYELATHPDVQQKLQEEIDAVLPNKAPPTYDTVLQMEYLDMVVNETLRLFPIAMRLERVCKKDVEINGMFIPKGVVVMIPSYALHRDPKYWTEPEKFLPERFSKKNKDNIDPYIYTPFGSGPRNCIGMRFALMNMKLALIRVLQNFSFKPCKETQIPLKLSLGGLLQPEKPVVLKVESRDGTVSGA

SMILES	IC50 [4]	IC50 [9] [µM]	also measured
O=C(c1nc2ncc(CCO)cn2n1)N1C[C@@H]2CN(c3cc(F)ccc3C(F)(F)F)C[C@@H]2C1 [Compound 7p]	0.15 µM	0.037	Metabolic stability in liver microsomes: % Remaining at 30 min, HLM [1]: 73%; IC50 [2]: > 20 µM; IC50 [3]: > 100 µM; maximum serum RBP4 reduction ([5]; single 25 mg/kg PO): 89%; maximum serum RBP4 reduction ([5]; single 35 mg/kg PO): 87%; IC50 [6]: > 20 µM; IC50 [7]: > 20 µM; IC50 [8]: > 20 µM
O=C(c1nc2ncc(CCO)cn2n1)N1C[C@@H]2CN(c3cc(F)ccc3C(F)(F)F)C[C@@H]2C1 [Compound 7q]	0.491 µM	0.031	Metabolic stability in liver microsomes: % Remaining at 30 min, HLM [1]: 26%; IC50 [3]: > 100 µM
O=C(c1c[nH]c2cnccc12)N1C[C@H]2C[C@@H](c3ccccc3C(F)(F)F)C[C@H]2C1 [Compound 8a]	> 30 µM	–	–
O=C(c1c[nH]c2ccncc12)N1C[C@H]2C[C@@H](c3ccccc3C(F)(F)F)C[C@H]2C1 [Compound 8b]	> 30 µM	–	–
O=C(c1nc2ncccn2n1)N1C[C@H]2C[C@@H](c3ccccc3C(F)(F)C(F)(F)F)C[C@H]2C1 [Compound 9a]	–	0.0273	–
Cc1ccn2c(C(=O)N3C[C@H]4C[C@@H](c5ccccc5OC(F)(F)F)C[C@H]4C3)nnc2n1 [Compound 9c]	1.13 µM	0.0829	–
O=C(c1cnc2ncccn12)N1C[C@H]2C[C@@H](c3ccccc3OC(F)(F)F)C[C@H]2C1 [Compound 9d]	1.45 µM	0.0881	–
Cc1cnc2nc(C(=O)N3C[C@H]4C[C@@H](c5ccccc5OC(F)(F)F)C[C@H]4C3)nn2c1 [Compound 9f]	0.45 µM	0.0571	–
O=C(c1cn2cccnc2n1)N1C[C@H]2C[C@@H](c3ccccc3OC(F)(F)F)C[C@H]2C1 [Compound 9g]	0.741 µM	0.0784	–
Cc1ccn2cc(C(=O)N3C[C@H]4C[C@@H](c5ccccc5OC(F)(F)F)C[C@H]4C3)nc2c1 [Compound 9h]	2.48 µM	0.104	–
O=C(c1nc2nc(C(F)(F)F)ccn2n1)N1C[C@H]2C[C@@H](c3ccccc3OC(F)(F)F)C[C@H]2C1 [Compound 9i]	20.4 µM	0.443	–
O=C(c1nc2ncccn2n1)N1C[C@H]2C[C@@H](c3ccccc3OC(F)(F)F)C[C@H]2C1 [Compound 9j]	0.551 µM and 0.473 µM	–	–
Cc1ccccc1[C@@H]1C[C@@H]2CN(C(=O)c3nc4ncccn4n3)C[C@@H]2C1 [Compound 10a]	–	14.8	–
CC(C)c1ccccc1[C@@H]1C[C@@H]2CN(C(=O)c3nc4ncccn4n3)C[C@@H]2C1 [Compound 10c]	0.0408 µM	–	–
O=C(c1nc2ncccn2n1)N1C[C@H]2C[C@@H](c3ccccc3-c3ccccc3)C[C@H]2C1 [Compound 10d]	0.3 µM	–	–
